From patent US8586768B2, “Design, synthesis and functional characterization of rottlerin analogs” (priority 2009, dated 2013)
Read-outs that look alike come from different tables or passages of the source.

Experiments:
[1] = target: PKCδ (Homo sapiens, UniProt Q05655); test: In vitro 32P phosphorylation kinase assay with histone substrate; format: biochemical; conditions: for % activity change 3 μM: 3 μM compound, negative = inhibition
Procedure: Since PK analogs are directed against PKCδ, it was first determined whether the analogs would inhibit PKCδ enzyme activity in kinase assays. The ability of lead PK analogs to inhibit purified human recombinant PKCδ enzyme activity by 32P phosphorylation kinase assay with histone as the substrate was measured. The in vitro kinase assays were performed with human recombinant PKCδ in the presence or absence of 0.3-10 μM lead PK analogs in the presence histone substrate, [^32P]-ATP and phospholipids. The extent of histone phosphorylation was determined after separation in SDS-PAGE and by phosphoimaging. IC50 was obtained using sigmoidal dose-response curve and non-linear regressional analysis using Graphpad Prism software.
In vitro kinase assays were performed with human recombinant PKCδ in the presence or absence of 0.3-10 μM lead PK analogs in the presence histone substrate, [^32P]-ATP and phospholipids. The extent of histone phosphorylation was determined after separation in SDS-PAGE and by phosphoimaging.

[2] = target: T1, PKAα (Homo sapiens, UniProt P17612); test: In-vitro kinase profiling, radioisotope screening assay (Signal Chem); format: biochemical; conditions: 5 μM compound, 50 μM ATP, vs vehicle control; negative = inhibition
T1 construct: purchased Signal Chem (Richmond, BC, Canada)
Procedure: (§1) Kinase profiling of PK analogs. The inhibitory effect of lead PK analogs were tested against a panel of 15 protein kinase targets (TABLE 1) to develop better lead candidates without “off” target effects. The selectivity assay was performed at Signal Chem™ (Richmond, BC, Canada) by profiling against protein kinase targets using the “Gold Standard” radioisotope screening assay format. This assay format gave the highest signal noise ratio and allowed the direct measurement of catalytic activity of a protein kinase.
(§2) All assays were performed in triplicate in a 96-well assay format and the % error between triplicates is <10%. Protein kinase assays was performed in the presence of 50 μM ATP at 30° C. for 15 min. The activity of the enzymes in the presence of 5 μM PK analogs was compared to that in the vehicle control and expressed as a percent change in activity relative to that observed in the vehicle control. In TABLE 1, the results are expressed as percent activity change compared to control. The intra-assay variability was determined to be less than 10%. Inhibition of target activity by the compound is shown by a negative value, while activation of target activity is shown by positive value, with values >10% considered to be highly significant.

[3] = target: T2, PKCα (Homo sapiens, UniProt P17252); test: as above; format: biochemical; conditions: 5 μM compound, 50 μM ATP, vs vehicle control; negative = inhibition
T2 construct: purchased Signal Chem (Richmond, BC, Canada)
Procedure: as §1, §2

[4] = target: T3, ASK1 (Homo sapiens, UniProt Q99683); test: as above; format: biochemical; conditions: 5 μM compound, 50 μM ATP, vs vehicle control; negative = inhibition
T3 construct: purchased Signal Chem (Richmond, BC, Canada)
T3 sequence (Q99683 1-1374): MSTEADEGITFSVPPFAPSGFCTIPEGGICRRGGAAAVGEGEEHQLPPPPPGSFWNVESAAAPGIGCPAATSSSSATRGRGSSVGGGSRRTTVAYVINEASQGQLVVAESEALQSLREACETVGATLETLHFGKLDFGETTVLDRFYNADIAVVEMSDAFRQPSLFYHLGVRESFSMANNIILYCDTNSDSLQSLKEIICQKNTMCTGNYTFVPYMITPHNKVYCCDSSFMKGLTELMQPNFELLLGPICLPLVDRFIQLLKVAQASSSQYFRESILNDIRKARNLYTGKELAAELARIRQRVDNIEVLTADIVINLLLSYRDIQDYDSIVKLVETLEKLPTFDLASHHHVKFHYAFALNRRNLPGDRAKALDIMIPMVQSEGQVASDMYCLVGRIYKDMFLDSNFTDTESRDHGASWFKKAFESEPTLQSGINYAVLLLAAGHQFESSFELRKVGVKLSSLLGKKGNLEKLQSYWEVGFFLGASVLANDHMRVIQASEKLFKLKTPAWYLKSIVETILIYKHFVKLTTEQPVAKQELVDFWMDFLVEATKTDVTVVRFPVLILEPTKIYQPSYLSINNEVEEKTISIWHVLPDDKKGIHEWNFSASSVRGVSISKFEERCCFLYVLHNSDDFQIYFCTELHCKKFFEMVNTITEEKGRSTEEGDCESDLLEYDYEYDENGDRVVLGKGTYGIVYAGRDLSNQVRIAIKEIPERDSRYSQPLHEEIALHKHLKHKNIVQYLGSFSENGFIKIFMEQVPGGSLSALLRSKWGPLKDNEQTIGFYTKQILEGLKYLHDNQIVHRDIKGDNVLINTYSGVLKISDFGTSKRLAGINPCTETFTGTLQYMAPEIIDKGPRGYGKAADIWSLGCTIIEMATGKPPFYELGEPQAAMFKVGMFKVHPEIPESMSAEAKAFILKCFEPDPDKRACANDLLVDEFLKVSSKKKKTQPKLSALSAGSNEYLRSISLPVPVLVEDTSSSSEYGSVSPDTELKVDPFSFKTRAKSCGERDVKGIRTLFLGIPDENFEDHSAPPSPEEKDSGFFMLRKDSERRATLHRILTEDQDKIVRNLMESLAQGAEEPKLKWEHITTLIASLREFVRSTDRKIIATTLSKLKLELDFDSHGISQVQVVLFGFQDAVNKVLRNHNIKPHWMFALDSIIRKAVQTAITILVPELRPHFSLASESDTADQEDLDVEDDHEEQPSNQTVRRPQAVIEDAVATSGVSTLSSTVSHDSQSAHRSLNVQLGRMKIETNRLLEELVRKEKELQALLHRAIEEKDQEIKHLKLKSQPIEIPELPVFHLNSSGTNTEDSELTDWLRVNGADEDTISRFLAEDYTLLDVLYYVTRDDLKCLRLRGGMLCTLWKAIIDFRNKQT
Procedure: as §1, §2

[5] = system: C57 black mice; test: MPTP mouse model, tyrosine hydroxylase (TH) immunostaining of substantia nigra; format: in vivo; conditions: MPTP 4 x 18 mg/kg i.p.; 10 mg/kg oral gavage, 7 days
Procedure: PK analogs attenuate dopaminergic neuronal cell loss induced by MPTP toxicity in mouse substantia nigra. Lead PK analogs were examined to determine whether they could protect against MPTP-induced dopaminergic neuronal loss in C57 black mice. Mice received 4 doses of MPTP at 18 mg/kg i.p. at 2 hr interval. Oral administration of PK analogs (10 mg/kg body wt, oral gavage) was continued for 7 days. Mice were sacrificed after 7 days of MPTP injections. (n=5).
Abbreviataions: M: MPTP; SNpc: substantia nigra pars compacta; SNl: substantia nigra lateralis; SNr: substantia nigra reticularis; VTA: Ventral tegmental area.

[6] = 0.3-10 μM, histone substrate, [32P]-ATP, phospholipids, read-out: IC50

PKCδ, sequence (Q05655 whole entry): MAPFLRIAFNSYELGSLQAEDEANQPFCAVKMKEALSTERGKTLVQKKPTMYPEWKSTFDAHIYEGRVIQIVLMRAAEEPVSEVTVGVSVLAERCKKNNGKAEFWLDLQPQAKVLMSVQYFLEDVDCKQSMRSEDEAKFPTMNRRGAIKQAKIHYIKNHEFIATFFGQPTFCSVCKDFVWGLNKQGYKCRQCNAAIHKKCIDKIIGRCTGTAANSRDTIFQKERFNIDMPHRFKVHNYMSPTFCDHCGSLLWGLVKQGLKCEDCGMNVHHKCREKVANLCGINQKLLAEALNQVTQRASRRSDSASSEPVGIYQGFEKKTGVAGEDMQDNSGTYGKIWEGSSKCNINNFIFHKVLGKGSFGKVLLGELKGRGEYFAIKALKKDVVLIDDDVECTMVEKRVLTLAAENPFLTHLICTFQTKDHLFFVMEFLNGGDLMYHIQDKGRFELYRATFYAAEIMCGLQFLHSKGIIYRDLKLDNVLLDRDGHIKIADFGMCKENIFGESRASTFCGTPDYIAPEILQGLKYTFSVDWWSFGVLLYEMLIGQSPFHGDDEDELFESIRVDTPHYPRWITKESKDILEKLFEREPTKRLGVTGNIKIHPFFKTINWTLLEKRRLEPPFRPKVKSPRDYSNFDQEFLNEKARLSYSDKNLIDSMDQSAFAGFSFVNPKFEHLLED

SMILES	% activity change 3 μM [1] [%]	IC50 [1, 6] [µM]	% activity change [2] [%]	% activity change [3] [%]	% activity change [4] [%]	protection against MPTP-induced nigral dopaminergic degeneration (TH immunostaining) [5]	IC50 [1] [µM]
Oc1cc(O)c(Cc2c(O)cc(O)cc2O)c(O)c1 [PK103]	−65	5.98	3	−1	0	significant protection	
CC(=O)c1c(O)c(C)c(O)c(Cc2c(O)c3c(c4c2OC(c2ccccc2)CC4=O)OC(C)(C)C=C3)c1O (centres unmarked) [PK202]	−67	0.97	10	9	4	significant protection	
CC1(C)C=Cc2c(O)cc(O)c(C(=O)/C=C/c3ccccc3)c2O1 [PK302]	−73	1.99	1	13	0	significant protection	
CC(=O)c1c(O)c(C)c(O)c(Cc2c(O)c3c(c(C(=O)/C=C/c4ccccc4)c2O)OC(C)(C)C=C3)c1O [Rottlerin, (E)-1-[6-[(3-acetyl-2,4,6-trihydroxy-5-methylphenyl)methyl]-5,7-dihydroxy-2,2-dimethylchromen-8-yl]-3-phenylprop-2-en-1-one]	−40		1	−7	2		13.6
